# Several values for one entry are separate records, joined by “and”; a condition that tells them apart may be missing. Identical values can stand only once. Inconclusive results and toxic doses are left out.
# Test system: BDF1 mice, intracerebral B16 melanoma, median survival T/C
# Test: NCI In Vivo Anticancer Drug Screen. Data for tumor model B16 Melanoma (intracerebral) in B6D2F1 (BDF1) mice
# Settings: endpoint: median survival time, higher = longer survival
# Description: The antitumor activity of compounds was measured in mice bearing transplantable tumors. Survival or tumor size were measured and the results are expressed as the measurement made in the treated group (T) divided by the measurement made in the vehicle treated control group (C). The tumor model used in this assay is B16 Melanoma (intracerebral) in B6D2F1 (BDF1) mice
# [1] = dose: 32.0 mg/kg/injection, schedule: Q01DX005 (ip), vehicle: saline with Tween-80
# [2] = dose: 0.25 mg/kg/injection, schedule: Q01DX009 (ip), vehicle: saline
# [3] = dose: 0.5 mg/kg/injection, schedule: Q01DX009 (ip), vehicle: saline
# [4] = dose: 1.0 mg/kg/injection, schedule: Q01DX009 (ip), vehicle: saline
# [5] = dose: 2.0 mg/kg/injection, schedule: Q01DX009 (ip), vehicle: saline
# [6] = dose: 6.25 mg/kg/injection, schedule: Q01DX009 (ip), vehicle: other
# [7] = dose: 12.5 mg/kg/injection, schedule: Q01DX009 (ip), vehicle: other
# [8] = dose: 25.0 mg/kg/injection, schedule: Q01DX009 (ip), vehicle: other
# [9] = dose: 50.0 mg/kg/injection, schedule: Q01DX009 (ip), vehicle: other
# [10] = dose: 4.0 mg/kg/injection, schedule: Q01DX009 (ip), vehicle: saline
# [11] = dose: 64.0 mg/kg/injection, schedule: Q01DX005 (ip), vehicle: saline with Tween-80
# [12] = dose: 128.0 mg/kg/injection, schedule: Q01DX005 (ip), vehicle: saline with Tween-80
smiles,measurement,setting,value
CCC1=C(c2ccc(OC)cc2)CCC(C(=O)O)C1C (stereo unspecified),T/C,"dose: 4.0 mg/kg/injection, schedule: Q01DX005 (ip), vehicle: saline with Tween-80",95 % of control
same,T/C,"dose: 4.0 mg/kg/injection, schedule: Q01DX005 (ip), vehicle: suspension in saline",103 % of control
same,T/C,"dose: 8.0 mg/kg/injection, schedule: Q01DX005 (ip), vehicle: saline with Tween-80",91 % of control
same,T/C,"dose: 8.0 mg/kg/injection, schedule: Q01DX005 (ip), vehicle: suspension in saline",95 % of control
same,T/C,"dose: 16.0 mg/kg/injection, schedule: Q01DX005 (ip), vehicle: suspension in saline",87 % of control
same,T/C,[1],105 % of control
same,T/C,"dose: 32.0 mg/kg/injection, schedule: Q01DX005 (ip), vehicle: suspension in saline",95 % of control
COc1ccc(CC2C(=O)NC(C)C(=O)N(C)C3C(=O)N(C)C(Cc4ccc(O)c(c4)Oc4ccc(cc4)C3O)C(=O)NC(C)C(=O)NC(C)C(=O)N2C)cc1 (stereo unspecified),T/C,"dose: 0.12 mg/kg/injection, schedule: Q01DX009 (ip), vehicle: Klucel (hydroxypropylcellulose) (HPC)",97 % of control and 102 % of control
same,T/C,"dose: 0.12 mg/kg/injection, schedule: Q01DX009 (ip), vehicle: saline",93 % of control
same,T/C,"dose: 0.25 mg/kg/injection, schedule: Q01DX009 (ip), vehicle: Klucel (hydroxypropylcellulose) (HPC)",100 % of control and 108 % of control
same,T/C,[2],103 % of control
same,T/C,"dose: 0.5 mg/kg/injection, schedule: Q01DX009 (ip), vehicle: Klucel (hydroxypropylcellulose) (HPC)",94 % of control and 97 % of control and 100 % of control
same,T/C,[3],102 % of control
same,T/C,"dose: 1.0 mg/kg/injection, schedule: Q01DX009 (ip), vehicle: Klucel (hydroxypropylcellulose) (HPC)",90 % of control and 94 % of control and 100 % of control
same,T/C,[4],98 % of control
same,T/C,[5],100 % of control
CC[n+]1c(-c2ccccc2)c2cc(N)ccc2c2ccc(N)cc21,T/C,"dose: 6.0 mg/kg/injection, schedule: Q01DX005 (ip), vehicle: saline",95 % of control
same,T/C,"dose: 12.0 mg/kg/injection, schedule: Q01DX005 (ip), vehicle: saline",104 % of control and 105 % of control and 109 % of control
same,T/C,"dose: 24.0 mg/kg/injection, schedule: Q01DX005 (ip), vehicle: saline",105 % of control
CN(Cc1cnc2nc(N)nc(N)c2n1)c1c(Cl)cc(C(=O)NC(CCC(=O)O)C(=O)O)cc1Cl (stereo unspecified),T/C,"dose: 8.0 mg/kg/injection, schedule: Q01DX009 (ip), vehicle: Klucel (hydroxypropylcellulose) (HPC)",100 % of control
same,T/C,"dose: 16.0 mg/kg/injection, schedule: Q01DX009 (ip), vehicle: Klucel (hydroxypropylcellulose) (HPC)",110 % of control
same,T/C,"dose: 32.0 mg/kg/injection, schedule: Q01DX009 (ip), vehicle: Klucel (hydroxypropylcellulose) (HPC)",94 % of control
same,T/C,"dose: 64.0 mg/kg/injection, schedule: Q01DX009 (ip), vehicle: Klucel (hydroxypropylcellulose) (HPC)",96 % of control
same,T/C,"dose: 128.0 mg/kg/injection, schedule: Q01DX009 (ip), vehicle: Klucel (hydroxypropylcellulose) (HPC)",100 % of control
CN(C)N=Nc1ccc2c(c1)N(C)c1ccc(F)cc1S2,T/C,[6],90 % of control
same,T/C,[7],105 % of control
same,T/C,[8],112 % of control
same,T/C,[9],105 % of control
same,T/C,"dose: 100.0 mg/kg/injection, schedule: Q01DX009 (ip), vehicle: other",112 % of control
COc1cc([C@@H]2c3cc4c(cc3[C@@H](OC3OC5CO[C@@H](c6cccs6)OC5C(O)C3O)[C@H]3COC(=O)[C@H]23)OCO4)cc(OC)c1O (stereo partly specified),T/C,[2],96 % of control
same,T/C,[3],107 % of control
same,T/C,"dose: 0.5 mg/kg/injection, schedule: Q01DX009 (ip), vehicle: water",91 % of control
same,T/C,[4],95 % of control and 100 % of control
same,T/C,"dose: 1.0 mg/kg/injection, schedule: Q01DX009 (ip), vehicle: water",104 % of control
same,T/C,[5],100 % of control and 108 % of control
same,T/C,"dose: 2.0 mg/kg/injection, schedule: Q01DX009 (ip), vehicle: water",95 % of control
same,T/C,[10],104 % of control
Cc1c2ccncc2c(C)c2c1[nH]c1ccccc12,T/C,"dose: 10.0 mg/kg/injection, schedule: Q01DX009 (ip), vehicle: saline",113 % of control
COc1ccc2c(c1O)-c1cccc3c1[C@@H](C2)N(CCCl)CC3,T/C,"dose: 8.0 mg/kg/injection, schedule: Q01DX005 (ip), vehicle: saline",94 % of control
same,T/C,"dose: 16.0 mg/kg/injection, schedule: Q01DX005 (ip), vehicle: saline",88 % of control
CN(C)N=Nc1ccc([N+](=O)[O-])cc1C(N)=O,T/C,"dose: 16.0 mg/kg/injection, schedule: Q01DX005 (ip), vehicle: saline with Tween-80",100 % of control
same,T/C,[1],105 % of control
same,T/C,[11],110 % of control
same,T/C,[12],107 % of control
Nc1nncs1,T/C,[11],100 % of control and 107 % of control
same,T/C,[12],119 % of control and 97 % of control
same,T/C,"dose: 256.0 mg/kg/injection, schedule: Q01DX005 (ip), vehicle: saline with Tween-80",113 % of control
same,T/C,"dose: 512.0 mg/kg/injection, schedule: Q01DX005 (ip), vehicle: saline with Tween-80",113 % of control
CNc1nc(N(C)C)nc(N(C)C)n1,T/C,"dose: 12.5 mg/kg/injection, schedule: Q01DX009 (ip), vehicle: saline",102 % of control and 106 % of control
COc1cccc2c1C(=O)c1c(O)c3c(c(O)c1C2=O)C[C@@](O)(C(=O)CO)C[C@@H]3OC1CC(N)C(O)C(C)O1 (stereo partly specified),T/C,"dose: 0.13 mg/kg/injection, schedule: Q01DX009 (ip), vehicle: saline",91 % of control
same,T/C,[2],108 % of control
same,T/C,"dose: 0.25 mg/kg/injection, schedule: Q03HX008 (ip), vehicle: saline",100 % of control
same,T/C,[3],112 % of control
same,T/C,"dose: 0.5 mg/kg/injection, schedule: Q03HX008 (ip), vehicle: saline",100 % of control
same,T/C,[4],104 % of control
same,T/C,"dose: 1.0 mg/kg/injection, schedule: Q03HX008 (ip), vehicle: saline",107 % of control
same,T/C,[5],108 % of control
same,T/C,"dose: 2.0 mg/kg/injection, schedule: Q03HX008 (ip), vehicle: saline",96 % of control
same,T/C,[10],116 % of control
N=C(N)SCc1c2ccccc2c(CSC(=N)N)c2ccccc12,T/C,"dose: 2.5 mg/kg/injection, schedule: Q01DX005 (ip), vehicle: Klucel (hydroxypropylcellulose) (HPC)",107 % of control and 111 % of control
same,T/C,"dose: 5.0 mg/kg/injection, schedule: Q01DX005 (ip), vehicle: Klucel (hydroxypropylcellulose) (HPC)",90 % of control and 92 % of control
same,T/C,"dose: 10.0 mg/kg/injection, schedule: Q01DX005 (ip), vehicle: Klucel (hydroxypropylcellulose) (HPC)",97 % of control and 103 % of control
same,T/C,"dose: 20.0 mg/kg/injection, schedule: Q01DX005 (ip), vehicle: Klucel (hydroxypropylcellulose) (HPC)",93 % of control and 96 % of control
CC[C@H]1CN2CCc3cc(OC)c(OC)cc3[C@@H]2C[C@@H]1C[C@H]1NCCc2cc(OC)c(OC)cc21,T/C,"dose: 2.0 mg/kg/injection, schedule: Q01DX005 (ip), vehicle: Klucel (hydroxypropylcellulose) (HPC)",100 % of control and 104 % of control
same,T/C,"dose: 4.0 mg/kg/injection, schedule: Q01DX005 (ip), vehicle: Klucel (hydroxypropylcellulose) (HPC)",90 % of control and 110 % of control
same,T/C,"dose: 8.0 mg/kg/injection, schedule: Q01DX005 (ip), vehicle: Klucel (hydroxypropylcellulose) (HPC)",86 % of control and 112 % of control
O=[N+]([O-])O.[Ga],T/C,"dose: 32.0 mg/kg/injection, schedule: Q01DX005 (ip), vehicle: saline",112 % of control
same,T/C,"dose: 64.0 mg/kg/injection, schedule: Q01DX005 (ip), vehicle: saline",93 % of control and 112 % of control
same,T/C,"dose: 128.0 mg/kg/injection, schedule: Q01DX005 (ip), vehicle: saline",103 % of control
NC(C/[N+]([O-])=N/O)C(=O)O (stereo unspecified),T/C,"dose: 3.5 mg/kg/injection, schedule: Q01DX009 (ip), vehicle: saline",97 % of control
same,T/C,"dose: 7.0 mg/kg/injection, schedule: Q01DX009 (ip), vehicle: saline",87 % of control
same,T/C,"dose: 12.5 mg/kg/injection, schedule: Q01DX009 (ip), vehicle: Klucel (hydroxypropylcellulose) (HPC)",107 % of control
same,T/C,"dose: 14.0 mg/kg/injection, schedule: Q01DX009 (ip), vehicle: saline",89 % of control
same,T/C,"dose: 25.0 mg/kg/injection, schedule: Q01DX009 (ip), vehicle: Klucel (hydroxypropylcellulose) (HPC)",100 % of control
same,T/C,"dose: 56.25 mg/kg/injection, schedule: Q01DX009 (ip), vehicle: saline",101 % of control
CN(C)N=Nc1ccnc2ccc(I)cc12,T/C,"dose: 3.12 mg/kg/injection, schedule: Q01DX009 (ip), vehicle: other",112 % of control
same,T/C,[6],110 % of control
same,T/C,[7],95 % of control
same,T/C,[8],110 % of control
same,T/C,[9],109 % of control
S=P(N1CC1)(N1CC1)N1CC1,T/C,[4],108 % of control (2×) and 113 % of control
same,T/C,[5],100 % of control
same,T/C,[10],120 % of control and 122 % of control
same,T/C,"dose: 8.0 mg/kg/injection, schedule: Q01DX009 (ip), vehicle: saline",172 % of control
O=NN(CCCl)C(=O)NC1[C@H](O)CCC[C@@H]1O (stereo partly specified),T/C,"dose: 4.32 mg/kg/injection, schedule: Q01DX001 (ip), vehicle: saline",104 % of control
same,T/C,"dose: 12.0 mg/kg/injection, schedule: Q01DX001 (ip), vehicle: saline",152 % of control
